These results are taken from PubChem BioAssay (NCI).

Some test systems named below: 786-0 renal; NCI/ADR-RES ovarian; COLO 205 colon; SK-MEL-5 melanoma; HT29 colon; NCI-H522 lung; EKVX NSCLC; SW-620 colon; SF-268 CNS; HCT-15 colon; HCT-116 colon.
Common to all, as to assay: NCI anticancer screen, dose series, 48 h

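1) Cells in 96-well plates. 2) Compound, 48 h, 5 concentrations. 3) Linear interpolation between surrounding doses. 4) Unreached endpoint = highest concentration. TGI: concentration producing complete growth inhibition.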 Where a SMILES comes first, the peptide text is derived from it. [ ]: non-standard residue; d: D form. The star is where a group is joined. ξ: configuration not given here. ξF = NC(Cc1ccccc1)C(=O)O; Cbz = O=C(OCc1ccccc1)*; Aib = CC(C)(N)C(=O)O

For the compound `O=c1c2cc(I)ccc2nc(SCc2n[nH]c(=S)o2)n1Cc1ccccc1`, the TGI with 786-0 renal was determined as 30.3 µM; in the test on NCI/ADR-RES ovarian it was 54.2 µM; in the test with COLO 205 colon, 22.8 µM; with SK-MEL-5 melanoma, 26.2 µM; with HT29 colon, 66.2 µM; in the test with NCI-H522 lung, 27.8 µM. In addition, the TGI in the test on EKVX NSCLC was determined as 40.8 µM; in the test on SW-620 colon it was 39.6 µM; in the test with SF-268 CNS, 32.9 µM; in the test with HCT-15 colon, 34 µM; in the test on HCT-116 colon it was 29.4 µM.

With `CC(C)(CCCCC(C)(C)C1NC(=O)N1)C1NC(=O)N1`, the TGI with NCI/ADR-RES ovarian, in the test on COLO 205 colon, with SK-MEL-5 melanoma, in the test on HT29 colon, with NCI-H522 lung and with EKVX NSCLC was greater than 10 µM each time. Besides, the TGI in the test on SW-620 colon, in the test on SF-268 CNS, with HCT-15 colon and in the test with HCT-116 colon was greater than 10 µM each time.

For the compound `CN(C)C=NCCN1CCOCC1`, the TGI in the test with 786-0 renal, with NCI/ADR-RES ovarian, in the test with COLO 205 colon, in the test with SK-MEL-5 melanoma, with HT29 colon and with NCI-H522 lung was greater than 100 µM each time. The TGI in the test with EKVX NSCLC, in the test on SF-268 CNS, with HCT-15 colon and in the test with HCT-116 colon was greater than 100 µM in each case.

Consider `CN(C)S(=O)(=O)n1cnc(CO)c1`, for which the TGI in the test on 786-0 renal, in the test on NCI/ADR-RES ovarian, with COLO 205 colon, in the test on SK-MEL-5 melanoma, with NCI-H522 lung and in the test on EKVX NSCLC was greater than 100 µM throughout. Further, the TGI in the test with SW-620 colon, in the test with SF-268 CNS, in the test with HCT-15 colon and in the test on HCT-116 colon was greater than 100 µM each time.

Regarding `CC(C)CC(NC(=O)C(Cc1ccccc1)NC(=O)C(Cc1c[nH]c2ccccc12)NC(=O)CNC(=O)C(N)Cc1ccc(O)cc1)C(=O)O` (stereo not given) (H-YGWFL-OH; configuration not given here), the TGI was 49.4 µM in the test with 786-0 renal; greater than 100 µM in the test on NCI/ADR-RES ovarian; 32.9 µM in the test on COLO 205 colon; greater than 100 µM in the test on SK-MEL-5 melanoma; greater than 100 µM in the test with HT29 colon; 95.6 µM in the test on NCI-H522 lung. In addition, the TGI was 73.6 µM with EKVX NSCLC, greater than 100 µM in the test on SF-268 CNS, greater than 100 µM in the test with HCT-15 colon and 70.6 µM in the test on HCT-116 colon.

As to `CC1=CC(C)C(C)N(CCNS(=O)(=O)c2ccc(C)cc2)c2ccccc21` (stereo not given), the TGI in the test on 786-0 renal is 20.8 µM; in the test with NCI/ADR-RES ovarian, 29.5 µM; with COLO 205 colon it was 17.3 µM; with HT29 colon, 17.4 µM; in the test with NCI-H522 lung it was 61.1 µM; in the test on EKVX NSCLC, greater than 31.6 µM. Besides, the results for the TGI in the test with SF-268 CNS, with HCT-15 colon and in the test on HCT-116 colon were 19.6 µM, greater than 31.6 µM and 17.7 µM, respectively.

`CN(C)CCn1c(=O)c2ccc3c4c(nn3CCN(C)C)c3cc([N+](=O)[O-])ccc3n(c1=O)c24`: the TGI is 0.277 µM in the test on 786-0 renal; 0.701 µM in the test with NCI/ADR-RES ovarian; 0.297 µM in the test on COLO 205 colon; 1.98 µM in the test with SK-MEL-5 melanoma; 0.2 µM with NCI-H522 lung; 0.434 µM in the test on EKVX NSCLC. For the same compound, the TGI in the test on SW-620 colon was determined as 0.979 µM; in the test with SF-268 CNS, 0.942 µM; in the test with HCT-15 colon it was 0.745 µM; in the test with HCT-116 colon, 0.325 µM.

In the case of `COc1cc(Nc2nnc3n2S(=O)(=O)c2cc(C)c(Cl)cc2S3)cc(OC)c1`, the TGI is 20.5 µM with 786-0 renal; greater than 100 µM with NCI/ADR-RES ovarian; greater than 100 µM in the test with COLO 205 colon; 68.7 µM in the test with SK-MEL-5 melanoma; greater than 100 µM in the test on HT29 colon; 8.44 µM in the test on NCI-H522 lung. Further, the TGI in the test on EKVX NSCLC is greater than 100 µM; with SF-268 CNS it was 50.7 µM; in the test on HCT-15 colon, greater than 100 µM; in the test on HCT-116 colon, greater than 100 µM.

With `COC1=CC(=O)c2c(c(COP(=O)(N(C)CCBr)N(C)CCBr)cn2C)C1=O`, the TGI with 786-0 renal was 0.349 µM; in the test with NCI/ADR-RES ovarian, 1.71 µM; with COLO 205 colon, 0.209 µM; in the test on SK-MEL-5 melanoma it was 0.328 µM; in the test with HT29 colon, 0.222 µM; in the test with NCI-H522 lung it was 0.374 µM. The TGI was 0.578 µM with EKVX NSCLC, 0.317 µM in the test on SW-620 colon, 1.75 µM with SF-268 CNS and 0.193 µM in the test on HCT-15 colon.

Regarding `COC(=O)C(C)(C)NC(=O)C(Cc1ccccc1)NC(=O)C(C)(C)NC(=O)OCc1ccccc1` (stereo not given) (Cbz-[Aib]-[ξF]-[Aib]-OMe), the TGI in the test on NCI/ADR-RES ovarian, with COLO 205 colon, with SK-MEL-5 melanoma, with HT29 colon, with NCI-H522 lung and in the test with EKVX NSCLC was greater than 100 µM throughout. Further, the TGI with SW-620 colon, with SF-268 CNS, in the test with HCT-15 colon and in the test on HCT-116 colon was greater than 100 µM throughout.
